Where a name gives a salt, the structure may show the parent alone. Read-outs that look alike come from different tables or passages of the source.
How the values were obtained:
[1] = 3H-labelled, 100 μl/eye into vitreous body, moment method, 1 to 21 days, average of three samples
[2] = Intraocular kinetic tests by fluorophotometry after injection into the vitreous body; format: in vivo, white rabbits; conditions: for half-life: rabbit, other: injection into the vitreous body (intravitreal)
Procedure: Intraocular kinetic tests were conducted by the following methods using the delivering substances A and B containing a fluorescence.
The same procedure as mentioned above was repeated except that fluorescein sodium was used instead of the delivering substances A and B to prepare a 10 μg/ml injection containing fluorescein sodium for comparison.
1) A mixed solution containing an aqueous ketamine hydrochloride solution (50 mg/ml) and an aqueous xylazine hydrochloride (50 mg/ml) in a ratio of 7:3 was administered intramuscularly to white rabbits to anesthetize.
2) A tropicamide (0.5%)/phenylephrine hydrochloride (0.5%) ophthalmic solution was instilled into both eyes to cause mydriasis in the both eyes.
3) The both eyes were anesthetized with an oxybuprocaine hydrochloride (0.5%) ophthalmic solution.
4) Each of the above-mentioned injection was administered to the center of a vitreous body from an ocular pars plana with a syringe equipped with a 30G needle.
5) Intraocular fluorescence intensity was measured with a fluorophotometry apparatus after the administration to the vitreous body at 1, 4, 7, 15, 35 and 56 days. A calibration curves were prepared, changes in concentration in the vitreous body and a retina were determined, and respective half-lives were calculated. The above-mentioned operations 1) and 2) were carried out before the intraocular fluorescence intensity was measured, too.
The numerical values in Tables 1 and 2 are the average of three samples respectively.

SMILES	Half-life (days) in the retina ([1]; retina)	Half-life (days) in the vitreous body ([1]; vitreous body)	half-life ([2]; retina, restated in hours in the text, read-out: half-life in the retina)	half-life in the vitreous body ([2]; vitreous body, restated in hours in the text)	half-life ([2]; white, 10 μg/ml, retina, injection into the vitreous body, moment method from data measured 1 to 56 days after injection, average of three samples, read-out: Half-life (days) in the retina)	half-life ([2]; white, vitreous body, injection into the vitreous body, moment method from data measured 1 to 35 days after injection, average of three samples, read-out: Half-life (days) in the vitreous body)
C[C@]12N[C@H](Cc3ccccc31)c1ccccc12 [Comparative substance X, [5R,10S]-(+)-5-methyl-10,11-dihydro-5H-dibenzo[a,d]cycloheptene-5,10-imine maleate]	0.6 days	0.5 days				
O=C1OC2(c3ccc(O)cc3Oc3cc(O)ccc32)c2ccccc21 [Fluorescein sodium, fluorescein sodium]			< 0.1 days	less than five hours	< 0.1 days	< 0.2 days
